Experimental data from patent US10934303B2, “Aryl ethene derivative and pharmaceutical composition containing same as active ingredient” (priority 2016, dated 2021).

Experiments:
ERRγ = assay type: cell-based; conditions: for Functional Assay at 10 μM (% of control), Cpds: 24 hours, AD293; for Functional Assay, Cpds/Ref 5182: activity relative to reference compound GSK5182, 10 μM
in vitro = in vitro ADME; conditions: PBS pH 7.4, 25° C., 5 hours
[1] = 1 μM, 30 minutes, 37° C., NADPH
[2] = 1 μM, 30 minutes, 37° C., NADPH; remark: listed apart in the source
Procedure: 2) Microsomal Stability Evaluation
Four liver microsomes (Human, Dog, Rat, Mouse 0.5 mg/ml) with a 0.1 M phosphate buffer solution (pH 7.4), and the arylethene derivative of the present invention were added to a concentration of 1 μM, culturing was performed at 37° C. for 5 minutes in advance, a NADPH regeneration system solution was added thereto, and culturing was performed at 37° C. for 30 minutes. Thereafter, in order to complete the reaction, an acetonitrile solution containing an internal standard material (chlorpropamide) was added thereto, centrifugation (14,000 rpm, 4° C.) was performed for 5 minutes, and a supernatant was injected into a LC-MS/MS system to analyze the substrate drug, thereby evaluating metabolism stability to the arylethene derivative of the present invention.

[3] = 1 μM, 30 minutes, 37° C., NADPH; remark: listed apart in the source
[4] = 1 μM, 30 minutes, 37° C., NADPH; remark: listed apart in the source
hERG channel = hERG channel (Homo sapiens (Human), UniProt Q12809); conditions: read-out: hERG IC50; fluorescence polarization assay
[5] = molecular target: GST-bound ERR gamma ligand-binding domain (LBD) (Homo sapiens (Human), UniProt P62508); experiment: ERRγ binding assay (inverse agonist assay), TR-FRET; conditions: TR-FRET, PGC1a coactivator; read-out: Binding Assay, IC50 ERRγ
GST-bound ERR gamma ligand-binding domain (LBD), sequence (P62508 233-457): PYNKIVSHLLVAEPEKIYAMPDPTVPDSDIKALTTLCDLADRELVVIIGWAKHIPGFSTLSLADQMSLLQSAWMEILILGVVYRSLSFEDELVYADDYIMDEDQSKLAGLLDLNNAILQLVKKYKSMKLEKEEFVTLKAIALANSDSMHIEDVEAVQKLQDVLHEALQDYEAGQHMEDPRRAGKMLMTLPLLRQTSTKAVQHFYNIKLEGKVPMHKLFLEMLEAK
Procedure: 1) ERRγ Binding Assay (Inverse Agonist Assay)
(§2) The arylethene derivative of the present invention was sequentially added to a 384 well plate from a concentration of 10 μM to a final concentration of two-fold dilution. […] After all reagents were added, a reaction was carried out with gentle shaking at 20° C. for 1 hour, and after the reaction, a binding activity was measured by a TR-FRET method.

GST-bound ERR alpha LBD = GST-bound ERR alpha LBD (Homo sapiens (Human), UniProt P11474); conditions: TR-FRET, PGC1a coactivator; read-out: Binding Assay, IC50 ERRα
GST-bound ERR alpha LBD, sequence (P11474 193-421): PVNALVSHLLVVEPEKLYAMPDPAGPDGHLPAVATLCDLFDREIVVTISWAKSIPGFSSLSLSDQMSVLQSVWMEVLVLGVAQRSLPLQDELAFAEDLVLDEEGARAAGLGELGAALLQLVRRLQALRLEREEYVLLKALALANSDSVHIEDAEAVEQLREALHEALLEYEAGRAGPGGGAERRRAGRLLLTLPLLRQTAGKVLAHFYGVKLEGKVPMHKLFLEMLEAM
Procedure: as §2

[6] = molecular target: GST-bound ER alpha ligand-binding domain (LBD) (Homo sapiens (Human), UniProt P03372); experiment: biochemical; conditions: TR-FRET, beta-estradiol 4 nM as agonist; read-out: Binding Assay, IC50 ERα
GST-bound ER alpha ligand-binding domain (LBD), sequence (P03372 whole entry, looked up, the tested form may be a part): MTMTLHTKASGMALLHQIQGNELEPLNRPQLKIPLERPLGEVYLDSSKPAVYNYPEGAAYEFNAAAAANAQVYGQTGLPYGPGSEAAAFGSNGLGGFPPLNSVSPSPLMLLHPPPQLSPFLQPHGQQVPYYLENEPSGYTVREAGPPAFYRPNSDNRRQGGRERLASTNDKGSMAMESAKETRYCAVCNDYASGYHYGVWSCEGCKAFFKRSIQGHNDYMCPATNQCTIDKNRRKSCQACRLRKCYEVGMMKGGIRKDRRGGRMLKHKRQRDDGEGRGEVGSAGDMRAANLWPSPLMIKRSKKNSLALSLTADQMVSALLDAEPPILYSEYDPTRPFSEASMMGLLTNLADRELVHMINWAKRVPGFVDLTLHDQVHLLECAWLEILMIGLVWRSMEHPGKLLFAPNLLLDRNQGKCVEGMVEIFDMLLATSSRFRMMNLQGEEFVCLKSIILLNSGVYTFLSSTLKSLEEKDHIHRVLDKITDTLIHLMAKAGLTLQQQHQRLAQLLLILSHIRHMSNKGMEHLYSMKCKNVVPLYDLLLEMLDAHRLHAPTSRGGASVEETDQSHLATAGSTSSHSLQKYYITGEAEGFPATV
Procedure: as §2

CYP1A2 = CYP1A2 (Homo sapiens (Human), UniProt P05177); experiment: Cytochrome P450 activity inhibition, CYP1A2; assay type: in vitro ADME; conditions: 10 μM, human liver microsomes, Phenacetin substrate
CYP1A2, sequence (P05177 whole entry): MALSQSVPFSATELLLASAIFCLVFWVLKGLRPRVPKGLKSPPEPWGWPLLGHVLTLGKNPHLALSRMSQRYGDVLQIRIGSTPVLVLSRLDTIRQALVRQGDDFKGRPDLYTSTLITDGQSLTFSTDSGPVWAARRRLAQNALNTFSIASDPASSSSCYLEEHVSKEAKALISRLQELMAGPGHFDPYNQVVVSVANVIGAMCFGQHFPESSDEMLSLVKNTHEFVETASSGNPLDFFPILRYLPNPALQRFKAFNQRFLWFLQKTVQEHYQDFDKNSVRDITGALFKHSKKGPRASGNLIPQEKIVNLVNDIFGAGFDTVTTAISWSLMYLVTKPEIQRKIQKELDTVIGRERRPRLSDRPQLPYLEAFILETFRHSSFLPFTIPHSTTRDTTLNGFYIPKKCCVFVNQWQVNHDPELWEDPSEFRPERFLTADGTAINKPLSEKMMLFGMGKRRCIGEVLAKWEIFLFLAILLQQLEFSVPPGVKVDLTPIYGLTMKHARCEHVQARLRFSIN
Source text: (§1) 1) Cytochrome P450 (CYP450) Activity Inhibition Evaluation

CYP2C9 = CYP2C9 (Homo sapiens (Human), UniProt P11712); experiment: Cytochrome P450 activity inhibition, CYP2C9; assay type: in vitro ADME; conditions: 10 μM, human liver microsomes, Diclofenac substrate
CYP2C9, sequence (P11712 whole entry): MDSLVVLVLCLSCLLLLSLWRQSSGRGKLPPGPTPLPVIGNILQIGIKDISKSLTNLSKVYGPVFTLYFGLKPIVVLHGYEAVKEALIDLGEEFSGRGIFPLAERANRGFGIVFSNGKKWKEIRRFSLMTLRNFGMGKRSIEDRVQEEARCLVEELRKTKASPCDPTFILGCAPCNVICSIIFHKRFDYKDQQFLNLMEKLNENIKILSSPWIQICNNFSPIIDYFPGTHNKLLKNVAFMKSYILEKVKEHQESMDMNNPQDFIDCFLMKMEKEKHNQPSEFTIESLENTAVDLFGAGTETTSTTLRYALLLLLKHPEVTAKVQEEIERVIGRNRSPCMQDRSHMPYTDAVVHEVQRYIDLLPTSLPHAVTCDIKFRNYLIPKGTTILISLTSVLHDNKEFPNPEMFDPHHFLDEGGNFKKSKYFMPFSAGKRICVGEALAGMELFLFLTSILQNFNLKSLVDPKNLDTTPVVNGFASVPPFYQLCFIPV
Source text: as §1

CYP2C19 = CYP2C19 (Homo sapiens (Human), UniProt P33261); experiment: Cytochrome P450 activity inhibition, CYP2C19; assay type: in vitro ADME; conditions: 10 μM, human liver microsomes, S-mephenytoin substrate
CYP2C19, sequence (P33261 whole entry): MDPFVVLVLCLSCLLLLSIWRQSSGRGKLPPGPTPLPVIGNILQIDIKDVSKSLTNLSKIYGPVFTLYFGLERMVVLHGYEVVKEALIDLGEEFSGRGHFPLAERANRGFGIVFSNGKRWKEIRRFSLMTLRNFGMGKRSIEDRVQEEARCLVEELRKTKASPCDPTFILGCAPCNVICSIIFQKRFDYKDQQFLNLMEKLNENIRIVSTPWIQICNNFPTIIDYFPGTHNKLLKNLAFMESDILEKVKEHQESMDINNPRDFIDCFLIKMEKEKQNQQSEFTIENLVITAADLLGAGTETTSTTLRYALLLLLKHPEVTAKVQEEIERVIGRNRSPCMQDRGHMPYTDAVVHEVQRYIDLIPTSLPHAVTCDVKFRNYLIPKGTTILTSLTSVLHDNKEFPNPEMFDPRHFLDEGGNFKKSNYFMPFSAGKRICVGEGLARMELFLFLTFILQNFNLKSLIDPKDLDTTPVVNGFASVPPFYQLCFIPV
Source text: as §1

CYP2D6 = CYP2D6 (Homo sapiens (Human), UniProt P10635); experiment: Cytochrome P450 activity inhibition, CYP2D6; assay type: in vitro ADME; conditions: 10 μM, human liver microsomes, Dextromethorphan substrate
CYP2D6, sequence (P10635 whole entry): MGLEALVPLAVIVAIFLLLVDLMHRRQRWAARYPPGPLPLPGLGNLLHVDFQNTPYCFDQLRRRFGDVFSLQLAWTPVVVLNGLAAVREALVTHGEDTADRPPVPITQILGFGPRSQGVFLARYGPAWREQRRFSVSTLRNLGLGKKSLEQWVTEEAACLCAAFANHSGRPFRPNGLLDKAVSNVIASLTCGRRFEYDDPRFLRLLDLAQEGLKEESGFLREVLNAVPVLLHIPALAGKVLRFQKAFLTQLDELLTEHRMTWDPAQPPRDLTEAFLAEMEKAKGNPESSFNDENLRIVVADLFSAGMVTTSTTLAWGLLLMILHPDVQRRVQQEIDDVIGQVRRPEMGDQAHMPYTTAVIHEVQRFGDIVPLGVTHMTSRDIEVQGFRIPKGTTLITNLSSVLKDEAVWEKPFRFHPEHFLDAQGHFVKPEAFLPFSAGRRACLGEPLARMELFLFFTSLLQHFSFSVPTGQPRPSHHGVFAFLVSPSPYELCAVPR
Source text: as §1

CYP3A4 = CYP3A4 (Homo sapiens (Human), UniProt P08684); experiment: Cytochrome P450 activity inhibition, CYP3A4; assay type: in vitro ADME; conditions: 10 μM, human liver microsomes, Midazolam substrate
CYP3A4, sequence (P08684 whole entry): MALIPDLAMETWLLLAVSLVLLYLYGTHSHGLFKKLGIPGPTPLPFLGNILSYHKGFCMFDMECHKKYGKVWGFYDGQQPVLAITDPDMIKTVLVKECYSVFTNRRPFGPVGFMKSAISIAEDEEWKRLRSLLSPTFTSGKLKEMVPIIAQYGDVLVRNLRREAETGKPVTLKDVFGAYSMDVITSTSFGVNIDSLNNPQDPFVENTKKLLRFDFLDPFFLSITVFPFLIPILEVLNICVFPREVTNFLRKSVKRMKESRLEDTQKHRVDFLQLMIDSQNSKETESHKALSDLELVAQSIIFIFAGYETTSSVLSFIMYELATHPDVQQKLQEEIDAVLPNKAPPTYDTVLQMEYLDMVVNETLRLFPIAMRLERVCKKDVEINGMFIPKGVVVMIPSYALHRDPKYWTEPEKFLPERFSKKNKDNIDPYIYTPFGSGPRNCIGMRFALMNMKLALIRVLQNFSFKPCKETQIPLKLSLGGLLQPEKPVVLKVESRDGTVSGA
Source text: as §1

in vivo = assay type: in vivo; conditions: rat

Structure (SMILES): CC(C)N1CCN(c2ccc(/C(=C(/CCCO)c3ccccc3)c3ccc([N+](=O)[O-])cc3)cc2)CC1 [Compound 18g]
- Functional Assay at 10 μM (% of control), Cpds (ERRγ): 1.62 % of control
- Functional Assay, Cpds/Ref 5182 (ERRγ): 0.84
- Permeability Pampa (in vitro): 4.8 10^−6 cm/s
- MS(Microsomal Stability) (%) human [1]: 87.9%
- MS(Microsomal Stability) (%) dog [2]: 84.9%
- MS(Microsomal Stability) (%) rat [3]: 85.3%
- MS(Microsomal Stability) (%) mouse [4]: 84.1%
- IC50 (hERG channel): 17.9 µM

Structure (SMILES): OCCC/C(=C(\c1ccc(O)cc1)c1ccc(N2CCN(C3CCCCC3)CC2)cc1)c1ccccc1 [Compound 22p]
- IC50 [5]: 0.099 µM
- IC50 (GST-bound ERR alpha LBD): 9.7 µM
- IC50 [6]: 2.12 µM
- CYP inhibition (% of control) 1A2 (CYP1A2): 88.1 % of control
- CYP inhibition (% of control) 2C9 (CYP2C9): 81.8 % of control
- CYP inhibition (% of control) 2C19 (CYP2C19): 61.5 % of control
- CYP inhibition (% of control) 2D6 (CYP2D6): 79.6 % of control
- CYP inhibition (% of control) 3A4 (CYP3A4): 90.6 % of control
- Permeability Pampa (in vitro): 0.2 10^−6 cm/s
- MS(Microsomal Stability) (%) human [1]: 72.3%
- MS(Microsomal Stability) (%) dog [2]: 77.7%
- MS(Microsomal Stability) (%) rat [3]: 75.3%
- MS(Microsomal Stability) (%) mouse [4]: 40.4%

Structure (SMILES): CN1CCN(c2ccc(/C(=C(/CCCO)c3ccccc3)c3ccc([N+](=O)[O-])cc3)cc2)CC1 [Compound 18c]
- Functional Assay at 10 μM (% of control), Cpds (ERRγ): 1.31 % of control
- Functional Assay, Cpds/Ref 5182 (ERRγ): 0.42
- CYP inhibition (% of control) 1A2 (CYP1A2): 92.2 % of control
- CYP inhibition (% of control) 2C9 (CYP2C9): 81.7 % of control
- CYP inhibition (% of control) 2C19 (CYP2C19): 80 % of control
- CYP inhibition (% of control) 2D6 (CYP2D6): 75.6 % of control
- CYP inhibition (% of control) 3A4 (CYP3A4): 64.1 % of control
- Permeability Pampa (in vitro): 5.73 10^−6 cm/s
- MS(Microsomal Stability) (%) human [1]: 96.9%
- MS(Microsomal Stability) (%) rat [3]: 72.8%
- IC50 (hERG channel): 11.6 µM

Structure (SMILES): OCCC/C(=C(\c1ccc(O)cc1)c1ccc(C2=CCN(C3CC3)CC2)cc1)c1ccccc1 [Compound 22j]
- CYP inhibition (% of control) 1A2 (CYP1A2): 95.7 % of control
- CYP inhibition (% of control) 2C9 (CYP2C9): 88 % of control
- CYP inhibition (% of control) 2C19 (CYP2C19): 89.6 % of control
- CYP inhibition (% of control) 2D6 (CYP2D6): 97.1 % of control
- CYP inhibition (% of control) 3A4 (CYP3A4): 85 % of control
- MS(Microsomal Stability) (%) human [1]: 65.2%
- MS(Microsomal Stability) (%) dog [2]: 54.9%
- MS(Microsomal Stability) (%) rat [3]: 65.5%
- MS(Microsomal Stability) (%) mouse [4]: 34.9%
- IC50 (hERG channel): 8.8 µM

Structure (SMILES): OCCC/C(=C(\c1ccc(O)cc1)c1ccc(C2CN(C3CC3)C2)cc1)c1ccccc1 [Compound 22d]
- CYP inhibition (% of control) 1A2 (CYP1A2): >100 % of control
- CYP inhibition (% of control) 2C9 (CYP2C9): >100 % of control
- CYP inhibition (% of control) 2C19 (CYP2C19): >100 % of control
- CYP inhibition (% of control) 2D6 (CYP2D6): 82.5 % of control
- CYP inhibition (% of control) 3A4 (CYP3A4): 66.1 % of control
- Permeability Pampa (in vitro): 0.38 10^−6 cm/s
- MS(Microsomal Stability) (%) human [1]: 57.6%
- MS(Microsomal Stability) (%) rat [3]: 60.2%
- IC50 (hERG channel): 6 µM

Structure (SMILES): Cc1ccc(/C(=C(\CCCO)c2ccccc2)c2ccc(C3CNC3)cc2)cc1 [Compound 20d]
- Permeability Pampa (in vitro): 0.23 10^−6 cm/s
- MS(Microsomal Stability) (%) human [1]: 83%
- MS(Microsomal Stability) (%) rat [3]: 54%
- MS(Microsomal Stability) (%) mouse [4]: 11.3%
- IC50 (hERG channel): 15 µM

Structure (SMILES): CC(C)N1CCN(c2ccc(/C(=C(/CCCO)c3ccccc3)c3ccc(Br)cc3)cc2)CC1 [Compound 18h]
- IC50 [5]: 0.032 µM
- IC50 (GST-bound ERR alpha LBD): > 10 µM
- IC50 [6]: > 10 µM
- Functional Assay at 10 μM (% of control), Cpds (ERRγ): 4.47 % of control
- Functional Assay, Cpds/Ref 5182 (ERRγ): 1.09
- CYP inhibition (% of control) 1A2 (CYP1A2): 93.5 % of control
- CYP inhibition (% of control) 2C9 (CYP2C9): 96.9 % of control
- CYP inhibition (% of control) 2C19 (CYP2C19): 86.3 % of control
- CYP inhibition (% of control) 2D6 (CYP2D6): 71.5 % of control
- CYP inhibition (% of control) 3A4 (CYP3A4): 64.5 % of control
- Permeability Pampa (in vitro): 0.37 10^−6 cm/s
- MS(Microsomal Stability) (%) human [1]: >100%
- MS(Microsomal Stability) (%) dog [2]: 64.4%
- MS(Microsomal Stability) (%) rat [3]: 74.2%
- MS(Microsomal Stability) (%) mouse [4]: 48.5%

Structure (SMILES): CCN1CCN(c2ccc(/C(=C(/CCCO)c3ccccc3)c3ccc(C)cc3)cc2)CC1 [Compound 18j]
- IC50 [5]: 0.025 µM
- IC50 (GST-bound ERR alpha LBD): > 10 µM
- IC50 [6]: > 10 µM
- Functional Assay at 10 μM (% of control), Cpds (ERRγ): 3.28 % of control
- Functional Assay, Cpds/Ref 5182 (ERRγ): 1.21
- CYP inhibition (% of control) 1A2 (CYP1A2): >100 % of control
- CYP inhibition (% of control) 2C9 (CYP2C9): 87 % of control
- CYP inhibition (% of control) 2C19 (CYP2C19): 74 % of control
- CYP inhibition (% of control) 2D6 (CYP2D6): 86.6 % of control
- CYP inhibition (% of control) 3A4 (CYP3A4): 77.6 % of control
- Permeability Pampa (in vitro): 1.61 10^−6 cm/s
- AUCINF (in vivo; IV, 1 mg/kg): 0.60 μMh
- AUCall (in vivo; IV, 1 mg/kg): 0.55 μMh
- Cl(observed)/F (in vivo; IV, 1 mg/kg): 59 mL/min/kg
- Vss (in vivo; IV, 1 mg/kg): 9.8 L/kg
- t1/2 (in vivo; IV, 1 mg/kg): 3.2 h
- AUCINF (in vivo; PO, 10 mg/kg): 1.61 μMh
- AUCall (in vivo; PO, 10 mg/kg): 1.07 μMh
- BA (in vivo; PO, 10 mg/kg): 19.6%
- Tmax (in vivo; PO, 10 mg/kg): 3 h
- Cmax (in vivo; PO, 10 mg/kg, read-out: Cmax): 210 nM
- MS(Microsomal Stability) (%) human [1]: 67.9%
- MS(Microsomal Stability) (%) dog [2]: 58.0%
- MS(Microsomal Stability) (%) rat [3]: 62.8%
- MS(Microsomal Stability) (%) mouse [4]: 54.9%

Structure (SMILES): OCCC/C(=C(\c1ccc(O)cc1)c1ccc(N2CCN(C3CCC3)CC2)cc1)c1ccccc1 [Compound 22q]
- IC50 [5]: 0.053 µM
- IC50 (GST-bound ERR alpha LBD): > 10 µM
- IC50 [6]: 1.66 µM
- CYP inhibition (% of control) 1A2 (CYP1A2): 99.9 % of control
- CYP inhibition (% of control) 2C9 (CYP2C9): 77.7 % of control
- CYP inhibition (% of control) 2C19 (CYP2C19): 92.8 % of control
- CYP inhibition (% of control) 2D6 (CYP2D6): 77.6 % of control
- CYP inhibition (% of control) 3A4 (CYP3A4): 81 % of control
- Permeability Pampa (in vitro): 0.77 10^−6 cm/s
- MS(Microsomal Stability) (%) human [1]: 63.7%
- MS(Microsomal Stability) (%) dog [2]: 43.8%
- MS(Microsomal Stability) (%) rat [3]: 67.6%
- MS(Microsomal Stability) (%) mouse [4]: 17.6%
